# Like-named read-outs stand apart in the source and are kept apart here.
# Assays:
# [1] = tested on: adult patients with biopsy-confirmed NASH; conditions: cited from earlier work
# [2] = tested on: adult, non-diabetic patients with NASH; assay: PIVENS trial (Pioglitazone versus Vitamin E versus Placebo), ancillary analysis of responders, NAS, ALT, HOMA-IR; type: in vivo, human
# Method: A pilot Ancillary Study to the Pioglitazone versus Vitamin E versus Placebo for the Treatment of nondiabetic Patients with Nonalcoholic Steatohepatitis (PIVENS) trial (Sanyal 2010), was conducted to ask whether hepatic Notch signaling tracks with disease pathology, and thus represent a novel biomarker of NAFLD/NASH.
# PIVENS investigators randomized adult, non-diabetic patients with NASH to therapy with placebo, vitamin E (800 IU daily) or pioglitazone (30 mg daily), and had strict inclusion and exclusion criteria for trial entry, as well as a thorough clinical phenotyping of these patients (Sanyal 2011; Sanyal 2010). The PIVENS primary outcome was an improvement in NASH pathology, defined by improved hepatocellular ballooning without increase in fibrosis, and either a 2+ point decrease in NAS or to a score of ≤3 points.
# Research-grade specimens were saved from subjects from the PIVENS trial for Ancillary Studies (Chalsani 2009). These samples were used to test the potential role of Notch signaling as either a biomarker or contributor to the NAFLD/NASH pathology.
# (§1) A subset (Table 1, right), of PIVENS research subjects had paired baseline and 96 wk cDNA available for analysis.
# [3] = tested on: HEYL; assay: PIVENS paired baseline and 96 wk liver cDNA, HEYL expression; type: in vivo, human; conditions: Vitamin E-treated responders, baseline vs 96 wk
# Description: as §1
# (§2) Sample size calculations are based from PIVENS data as described in Example 9A, and exclude pioglitazone-treated patients to be conservative. Using data derived from paired samples in Vitamin E-treated responders (mean difference of 1.11±0.51 fg/ng 18S for HES1 and 2.27±0.71 fg/ng 18S for HEYL), we calculated using unpaired t-testing with type I error=0.05 and type II error=[…], that 12 before-and-after biopsies in FLINT are required to detect a statistically significant difference in OCA-responders for both HES1 and HEYL.
# [4] = tested on: adult, non-diabetic patients with NASH; conditions: final analysis; vitamin E 800 IU daily, pioglitazone 30 mg daily; cited from earlier work
# [5] = tested on: HES1; assay: PIVENS paired baseline and 96 wk liver cDNA, HES1 expression; type: in vivo, human; conditions: Vitamin E-treated responders, baseline vs 96 wk
# Description: as §1, §2
# [6] = Cross-sectional study, nonresponders (NR)
# [7] = Cross-sectional study, responders (R)
# [8] = Cross-sectional study, number of subjects with NASH resolution or primary PIVENS outcome
# [9] = Longitudinal study, nonresponders (NR)
# [10] = Longitudinal study, responders (R)
# [11] = Longitudinal study, number of subjects
Compound,Responders (%) ([2]; Cross-sectional study),"ALT [2, 6] [U/L]","HOMA-IR [2, 6]","NAS [2, 6]","ALT [2, 7]","HOMA-IR [2, 7]","NAS [2, 7]","Responders [2, 8]",Responders (%) ([2]; Longitudinal study),"ALT [2, 9] [U/L]","HOMA-IR [2, 9]","NAS [2, 9]","ALT [2, 10] [U/L]","HOMA-IR [2, 10]","NAS [2, 10]","Responders [2, 11]",further results
"CC[C@H]1[C@@H](O)[C@@H]2[C@H](CC[C@]3(C)[C@@H]([C@H](C)CCC(=O)O)CC[C@@H]23)[C@@]2(C)CC[C@@H](O)C[C@@H]12 [OCA, obeticholic acid]",–,–,–,–,–,–,–,–,–,–,–,–,–,–,–,–,"HOMA-IR ([1]; change, p=0.01): +13 U; insulin ([1]; change, p=0.02): +29 pmol/L; HDL cholesterol ([1]; in vivo): significant lowering; insulin resistance ([1]; in vivo): increased insulin resistance; insulin resistance ([1]; in vivo, listed as obeticholic acid): clearly induced insulin resistance"
"CCc1ccc(CCOc2ccc(CC3SC(=O)NC3=O)cc2)nc1 (stereo not shown) [PIO, pioglitazone]",(78%),46,5.5,4.8,34 ± U/L,2.9 ±,2.2 ±,29,(75%),56,4.1,5.0,41,3.3,3.0,3,–
vitamin E [VitE],(61%),55,5.6,4.6,33 U/L,5.2,2.7 ±,25,(60%),58,5.1,3.9,45,5.1,2.6,6,mean difference of HEYL in paired samples [3]: 2.27±0.71 fg/ng 18S; PIVENS primary outcome (improvement in NASH pathology) [4]: met the primary outcome; mean difference of HES1 in paired samples [5]: 1.11±0.51 fg/ng 18S

# Source: US10801068B2, “JAG1 expression predicts therapeutic response in NASH” (The Trustees of Columbia University in the City of New York, priority 2015, dated 2020)
